Source: patent publication US20230348394A1, “COMPOSITIONS AND METHODS FOR TREATING MUSCULAR DYSTROPHIES” (The Regents of the University of California, priority 2020, published 2023)

How the values were obtained:
SSPN mRNA [1] = experiment: SSPN gene expression in C2C12, H2K WT and H2K mdx myoblasts; type: cell-based, murine; details: 24 hours, 1, 5 and 10 μM
Procedure: FIG. 9. OT-9 is effective in multiple myoblast lines. […] Myoblasts were treated for 24 hours with 1, 5, and 10 μM of OT-9 or PC1-36. Gene expression was normalized to β-actin and vehicle-treated cells (0.1% DMSO). Data represents individual replicates and mean value. n=3-6. SSPN, sarcospan; R.U., relative units. *p<0.05, **p<0.01, ***p<0.001, ****p<0.0001.
RNA from myotubes treated for 48 hrs was extracted from cells using Trizol-based (Thermo Fisher Scientific) phase separation, Chomczynski et al., Biotechniques. 1993; 15(3):532-4, 6-7. RNA concentrations were determined using a NanoDrop 1000 (Thermo Fisher Scientific) and 750 ng of RNA in a 20 Id reaction was reverse transcribed using iScript cDNA synthesis (Bio-Rad) with the following cycling conditions: 25° C. for 5 mins, 42° C. for 30 mins, 85° C. for 5 mins. For mouse qPCR, SsoFast EvaGreen Supermix (Bio-Rad), 400 nM of each optimized forward and reverse primer (SSPN F: 5′ […] 3′, SSPN R: 5′ […] 3′, BACT F: 5′ […] 3′, BACT R: 5′ […] 3′), and cDNA corresponding to 37.5 ng RNA were used to amplify cDNA measured by QuantStudio 5 Real-Time PCR System (Thermo Fisher Scientific) with the following reaction conditions: 55° C. for 2 mins, 95° C. for 2 mins, 40 cycles of 95° C. for 10 seconds and 62° C. for 30 seconds, and dissociation stage. […]

SSPN mRNA [2] = experiment: SSPN gene expression in wild-type C2C12 myotubes; type: cell-based, mouse
Procedure: C2C12 cells (American Type Culture Collection) were grown at 37° C. with 5% CO2 in growth medium containing DMEM (Gibco) with 20% FBS (Sigma-Aldrich). Upon reaching 90-100% confluency, myoblasts were induced to differentiate by replacing the medium with differentiation medium consisting of DMEM with 2% horse serum (Sigma-Aldrich). Conditionally immortalized H2K WT and mdx myoblasts with a nonsense mutation in exon 23 of dystrophin were a gift from Terrance Partridge, Ph.D. (Children's National Medical Center, Washington, D.C.). See, Morgan et al., Dev Biol. 1994; 162(2):486-98 Myoblasts were allowed to proliferate on 0.01% gelatin (Sigma-Aldrich) coated plates at 33° C. with 5% CO2 with growth medium containing DMEM, 20% HI-FBS (Invitrogen), 2% L-glutamine (Sigma-Aldrich), 2% chicken embryo extract (Accurate Chemical), 1% penicillin-streptomycin (Sigma-Aldrich), and 20 U/ml of fresh interferon gamma (Gibco). […]
RNA from myotubes treated for 48 hrs was extracted from cells using Trizol-based (Thermo Fisher Scientific) phase separation, Chomczynski et al., Biotechniques. […] RNA concentrations were determined using a NanoDrop 1000 (Thermo Fisher Scientific) and 750 ng of RNA in a 20 Id reaction was reverse transcribed using iScript cDNA synthesis (Bio-Rad) with the following cycling conditions: 25° C. for 5 mins, 42° C. for 30 mins, 85° C. for 5 mins. For mouse qPCR, SsoFast EvaGreen Supermix (Bio-Rad), 400 nM of each optimized forward and reverse primer (SSPN F: 5′ […] 3′, SSPN R: 5′ […] 3′, BACT F: 5′ […] 3′, BACT R: 5′ […] 3′), and cDNA corresponding to 37.5 ng RNA were used to amplify cDNA measured by QuantStudio 5 Real-Time PCR System (Thermo Fisher Scientific) with the following reaction conditions: 55° C. for 2 mins, 95° C. for 2 mins, 40 cycles of 95° C. for 10 seconds and 62° C. for 30 seconds, and dissociation stage. […] Data was analyzed using the ddCT method and normalized to reference gene ACTB with vehicle-treated samples serving as the calibrator (relative expression of vehicle control=1). […]

CCN(CC)c1ccc2cc(C(=O)Nc3ccc(C(=O)N4CCCCCC4)cc3)c(=O)oc2c1 [OT-9]
SSPN mRNA levels in myoblasts (SSPN mRNA [1]): increased SSPN mRNA levels in all myoblast lines | SSPN mRNA levels after compound removal (SSPN mRNA [2]; 5 μM for 4 hours, 4, 24 and 48 hours after compound removal): returned to baseline levels | SSPN mRNA levels over the vehicle control (SSPN mRNA [2]; 5 μM for 4 hours, immediately after compound removal (0h)): 1.5 fold | SSPN mRNA levels (SSPN mRNA [2]; 5 μM, 48 hours): increased SSPN mRNA levels
